The conditions of the series: 101.33 kPa, Liquid, Buoyancy - hydrostatic balance with magnetic suspension - one sinker.

Numbers after ± are expanded uncertainties.

As for `CCO` [ethanol], the mass density is given as 768.9 ± 3.5 kg/m3 (313.2 K), 752.7 ± 1.7 kg/m3 (338.2 K) and 732.4 ± 1.2 kg/m3 (343.2 K).

As usually defined, the mass density is the mass of a sample divided by its volume.

Values taken from the NIST ThermoML archive (doi:10.1021/je900830s).
